Assay results reported in patent US20230212296A1, “SYSTEMS AND METHODS FOR TREATING CANCER” (Arizona Board of Regents on Behalf of the University of …, priority 2020, published 2023).

Tests used:
PIM1 [1] = biological target: T1, PIM1 (Homo sapiens, UniProt P11309); format: biochemical; conditions: immunoprecipitated HA-HIF-1α, recombinant PIM1 (FIG. 4D)
Procedure: In vivo: HA-HIF-1α or its mutant (T455A) were immunoprecipitated with anti-HA antibodies. Immune complexes were washed three times in lysis buffer, then washed twice in 1× kinase buffer and incubated with 0.1 μg of recombinant active PIM1 and 100 μmol/L of ATP for 30 min at 25° C. Reactions were stopped by washing twice in a cold kinase buffer and boiling in 2×SDS loading buffer. The sample was separated on a SDS-polyacrylamide gel and subjected to Western blot analysis with anti-phospho HIF-1α (T455) antibody.

SW620 tumors = assay: SW620 xenograft in SCID mice; format: in vivo
Procedure: (§1) FIG. 6: Five million parental, B24, or C34 SW620 cells in PBS were injected subcutaneously into the rear flanks of mice. Once the tumors reached a volume of approximately 100 mm^3, the mice were randomized for daily treatment with vehicle or AZD1208 (30 mg/kg/day, p.o.) for up to 2 weeks or until tumor burden reached a maximum volume of 2 cm^3. Tumors were measured every 2-3 days via caliper. Upon sacrifice, tumors were harvested for IHC staining with PIM1, HIF-1α, and CC3, and mRNA was collected for analysis.
(§2) For both, the following formula was used to calculate tumor volume by caliper measurements:
(§3) V=(tumor width)^2×tumor length/2.
(§4) These lines were validated by Sanger sequencing.

PIM1 [2] = biological target: T1, PIM1; format: biochemical; parameters: Recombinant full-length GST-PIM1 was incubated with recombinant GST-HIF-1α; GST; conditions: in the presence of a PIM inhibitor (AZD1208 100 nM per method) (FIG. 4A)
Procedure: In vitro: Recombinant full-length GST-PIM1 was incubated with recombinant GST-HIF-1α, GST (negative control), or dephosphorylated myelin basic protein (MBP) in the presence or absence of AZD1208 (100 nM) and ^32P-labeled ATP in kinase assay buffer (20 mM MOPS [pH 7.0] containing 100 mM NaCl, 10 mmol/L MgCl2, and 2 mmol/L dithiothreitol). Reactions were incubated at 37° C. for 60 min prior to the addition of 5× Laemmli sample buffer. Samples were separated by SDS-PAGE and gels were stained with Coomassie prior to autoradiography or preparation for mass spectrometry.

B24 and C34 cell lines = assay: MTT cell viability, HIF-1α T455D mutant SW620 lines B24 and C34; format: cell-based; conditions: B24 and C34, increasing doses, 24 h (FIG. 6B)
Procedure: (§5) Response to drug: Twenty thousand cells were plated onto a 96-well plate and allowed to grow for 24 h prior to addition of the drug, and MTT assays were performed after 24 h incubation with the indicated drugs. For MTT assays, media was removed from the cells by aspiration and 50 μL serum-free DMEM and 50 μL MTT solution were added to each well, and plates were incubated for 4 h at 37° C. After incubation, 150 μL of DMSO was added to each well for 15 minutes and absorbance was read at 540 nm.

HIF-1 target genes = assay: Hypoxia-inducible gene expression (RT2 profiler array, qRT-PCR) in PC3 Dox-PIM1 cells; format: cell-based; conditions: eleven genes; Dox 24 h, ± AZD1208 for 8 h, normoxia (FIG. 3F)
Procedure: Hypoxia-responsive gene expression was measured and quantified using RT^2 hypoxia-signaling PCR profiler arrays using the manufacturer's software (Qiagen). All other qRT-PCR reactions were performed using qPCRBIO SyGreen Blue Mix (PCR Biosystems), according to the manufacturer's protocol. Validated primer sets (QuantiTech primer assays; Qiagen) for each of the following genes were purchased to measure gene expression: VEGF-A, angiopoietin like 4 (ANGPTL4), and hexokinase 2 (HK2). HIF1α, PIM1 and Actin primers were purchased from IDT. Actin was used to normalize.

SW620 cells = assay: MTT cell viability, parental SW620 cells; format: cell-based; conditions: parental SW620, increasing doses, 24 h (FIG. 6B)
Procedure: as §5

HIF-1α = assay: Immunoblotting of HIF-1α and phospho-T455 in Dox-PIM1 PC3 cells; format: cell-based; conditions: Dox-PIM1 PC3, dox 24 h, AZD1208 3 μM for 6 h (FIG. 3C)
HIF-1 = HIF-1 reporter (HRE-Luc) assay in Dox-PIM1 cells; format: cell-based; conditions: Dox 24 h, then AZD1208 for 4 h, normoxia (FIG. 3D)
B24 and C34 tumors = assay: B24 / C34 (HIF-1α T455D) xenografts in SCID mice; format: in vivo
Procedure: as §1, §2, §3, §4

T1 sequence (P11309 whole entry): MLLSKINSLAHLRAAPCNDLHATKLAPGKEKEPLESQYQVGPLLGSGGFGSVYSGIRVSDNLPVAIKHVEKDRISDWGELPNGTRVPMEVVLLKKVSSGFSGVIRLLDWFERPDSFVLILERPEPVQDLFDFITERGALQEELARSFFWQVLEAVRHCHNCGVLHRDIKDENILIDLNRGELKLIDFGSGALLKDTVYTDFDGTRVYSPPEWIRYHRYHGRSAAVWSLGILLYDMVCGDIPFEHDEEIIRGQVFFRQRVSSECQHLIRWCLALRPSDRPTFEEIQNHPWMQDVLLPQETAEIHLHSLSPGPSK

recombinant full-length GST-PIM1
kinase assay on immunoprecipitated HA-HIF-1α, western blot with phospho-T455 antibody (HA-HIF-1α (wild-type)): Wild-type HIF-1α displayed robust phosphorylation at Thr455 by PIM1, which was blocked by AZD1208 | in vitro kinase assay (32P-ATP autoradiography; mass spectrometry of phosphorylation sites) (recombinant GST-HIF-1α): Autoradiography revealed that PIM1 is able to phosphorylate HIF-1α, and phosphorylation was lost in the presence of a PIM inhibitor

N[C@@H]1CCCN(c2c(/C=C3\SC(=O)NC3=O)cccc2-c2ccccc2)C1 [AZD1208]
phosphorylation of wild-type HIF-1α at Thr455 by PIM1 (PIM1 [1]): blocked | HIF-1α levels in tumors (IHC) (SW620 tumors; SW620 tumors, AZD1208 30 mg/kg (FIG. 6I)): significantly reduced | apoptosis (cleaved caspase-3 staining) (SW620 tumors; SW620 tumors, AZD1208 30 mg/kg (FIG. 6J)): increased | expression of pro-angiogenic genes VEGF-A and ANGPT4 in tumor tissue (RT-PCR) (SW620 tumors; SW620 tumors, AZD1208 30 mg/kg (FIG. 6K)): reduced | tumor volume (SW620 tumors; SW620 tumors, AZD1208 30 mg/kg/day p.o. (FIG. 6G)): significantly reduced | tumor vasculature (H&E staining) (SW620 tumors; SW620 xenografts, AZD1208 30 mg/kg (FIG. 6H)): disrupted tumor vasculature | phosphorylation of HIF-1α by PIM1 (autoradiography) (PIM1 [2]): phosphorylation was lost | cell viability (MTT), sensitivity versus parental SW620 (B24 and C34 cell lines): less sensitive | transcript levels of hypoxia-inducible genes upregulated at least 3-fold by PIM1 (HIF-1 target genes): significantly reduced | cell viability (MTT) (SW620 cells): significant and dose-dependent reduction in viability | ability of PIM1 to increase HIF-1α protein levels (HIF-1α): blocked the ability of PIM1 to increase HIF-1α protein levels | PIM1-induced increase of HIF-1 activity (HRE-Luc normalized to Renilla-Luc) (HIF-1): reversed | expression of HIF-1 target genes in tumor tissue (RT-PCR) (B24 and C34 tumors; B24 and C34 tumors, AZD1208 30 mg/kg (FIG. 6K)): no effect | HIF-1α levels in tumors (IHC) (B24 and C34 tumors; B24 or C34 tumors, AZD1208 30 mg/kg (FIG. 6I)): refractory to PIM inhibition | apoptosis (cleaved caspase-3 staining) (B24 and C34 tumors; B24 or C34 tumors, AZD1208 30 mg/kg (FIG. 6J)): no significant apoptosis was observed | tumor growth (B24 and C34 tumors; B24 or C34 xenografts, AZD1208 30 mg/kg/day p.o. (FIG. 6G)): unable to slow the growth | tumor vasculature (H&E staining) (B24 and C34 tumors; C34 and B24 tumors, AZD1208 30 mg/kg (FIG. 6H)): regular vasculature was observed
